In the supplement of paper PMC10307832:

Assays:
Assay in all cases: relative viability (nuclei count vs DMSO), 5 days (fraction); higher = more cells survive
BI-D1870 + Palbociclib = compound: CC(C)CCN1c2nc(Nc3cc(F)c(O)c(F)c3)ncc2N(C)C(=O)C1C [BI-D1870] + CC(=O)c1c(C)c2cnc(Nc3ccc(N4CCNCC4)cn3)nc2n(C2CCCC2)c1=O [Palbociclib] (partner 0.5 µM)
Procedure, shortened: (§1)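 Relative viability divides the nuclei count in treated wells by that in vehicle wells. Lung cancer cell lines were seeded in 1536-well plates, dosed by pin tool the next day, and fixed and stained after 5 days in one step with final 0.05% Triton X-100, 1% formaldehyde and 1 ug/ml Hoechst. Dosing was a single drug or a fixed anchor-drug dose plus five library-drug doses (not always all listed) in √10 steps, and values are medians of duplicate plates imaged at 4×.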

BI-D1870 + Pemetrexed = compound: CC(C)CCN1c2nc(Nc3cc(F)c(O)c(F)c3)ncc2N(C)C(=O)C1C [BI-D1870] + Nc1nc2[nH]cc(CCc3ccc(C(=O)N[C@@H](CCC(=O)O)C(=O)O)cc3)c2c(=O)[nH]1 [Pemetrexed] (partner 0.2 µM)
Procedure, shortened: as §1

Zebularine + Alpelisib = compound: O=c1ncccn1[C@@H]1O[C@H](CO)[C@@H](O)[C@H]1O [Zebularine] + Cc1nc(NC(=O)N2CCC[C@H]2C(N)=O)sc1-c1ccnc(C(C)(C)C(F)(F)F)c1 [Alpelisib] (partner 2 µM)
Procedure, shortened: as §1

Zebularine + Decitabine = compound: O=c1ncccn1[C@@H]1O[C@H](CO)[C@@H](O)[C@H]1O [Zebularine] + Nc1ncn([C@H]2C[C@H](O)[C@@H](CO)O2)c(=O)n1 [Decitabine] (partner 2 µM)
Procedure, shortened: as §1

| Cell Line | relative viability (BI-D1870 + Palbociclib; first compound 0.04 µM) | relative viability (BI-D1870 + Palbociclib; first compound 0.1265 µM) | relative viability (BI-D1870 + Palbociclib; first compound 0.4 µM) | relative viability (BI-D1870 + Palbociclib; first compound 1.265 µM) | relative viability (BI-D1870 + Palbociclib; first compound 4 µM) | relative viability (BI-D1870 + Pemetrexed; first compound 0.04 µM) | relative viability (BI-D1870 + Pemetrexed; first compound 0.1265 µM) | relative viability (BI-D1870 + Pemetrexed; first compound 0.4 µM) | relative viability (BI-D1870 + Pemetrexed; first compound 1.265 µM) | relative viability (BI-D1870 + Pemetrexed; first compound 4 µM) | relative viability (Zebularine + Alpelisib; first compound 1 µM) | relative viability (Zebularine + Alpelisib; first compound 3.162 µM) | relative viability (Zebularine + Alpelisib; first compound 10 µM) | relative viability (Zebularine + Alpelisib; first compound 31.62 µM) | relative viability (Zebularine + Alpelisib; first compound 100 µM) | relative viability (Zebularine + Decitabine; first compound 1 µM) | relative viability (Zebularine + Decitabine; first compound 3.162 µM) | relative viability (Zebularine + Decitabine; first compound 10 µM) | relative viability (Zebularine + Decitabine; first compound 31.62 µM) | relative viability (Zebularine + Decitabine; first compound 100 µM) |
| --- | --- | --- | --- | --- | --- | --- | --- | --- | --- | --- | --- | --- | --- | --- | --- | --- | --- | --- | --- | --- |
| NCI-H1793 | 0.369 | 0.274 | 0.291 | 0.391 | 0.318 | 1.14 | 0.737 | 0.869 | 1.03 | 0.686 | 0.812 | 0.7 | 0.391 | 0.357 | 0.193 | 0.471 | 0.523 | 0.292 | 0.328 | 0.218 |
| NCI-H2023 | 0.424 | 0.279 | 0.284 | 0.3 | 0.207 | 0.24 | 0.255 | 0.288 | 0.255 | 0.149 | 0.697 | 0.551 | 0.533 | 0.53 | 0.287 | 0.243 | 0.22 | 0.166 | 0.199 | 0.182 |
| COR-L 105 | 0.412 | 0.395 | 0.407 | 0.41 | 0.425 | 1.31 | 0.883 | 1.14 | 1.32 | 1.05 | 1.24 | 0.952 | 0.807 | 0.96 | 1.1 | 0.642 | 0.696 | 0.523 | 0.648 | 0.647 |
| RERF-LC-KJ | 1.14 | 0.994 | 1.03 | 1.02 | 0.766 | 0.453 | 0.447 | 0.476 | 0.527 | 0.413 | 0.93 | 0.859 | 0.611 | 1.03 | 0.753 | 0.828 | 0.733 | 0.587 | 0.85 | 0.751 |
| LXF-289 | 0.577 | 0.583 | 0.598 | 0.641 | 0.558 | 0.959 | 0.857 | 0.876 | 0.877 | 0.764 | 1.08 | 1.06 | 0.827 | 0.811 | 0.329 | 0.362 | 0.331 | 0.382 | 0.345 | 0.24 |
| PC-14 | 0.56 | 0.468 | 0.474 | 0.356 | 0.138 | 0.124 | 0.129 | 0.141 | 0.133 | 0.124 | 1.04 | 0.953 | 0.232 | 0.111 | 0.163 | 0.193 | 0.135 | 0.117 | 0.0981 | 0.0826 |
| NCI-H650 | 0.384 | 0.304 | 0.338 | 0.353 | 0.233 | 0.848 | 0.837 | 0.96 | 0.896 | 0.802 | 1.04 | 1.2 | 0.894 | 0.462 | 0.319 | 0.28 | 0.285 | 0.31 | 0.298 | 0.297 |
| NCI-H1666 | 0.665 | 0.591 | 0.661 | 0.63 | 0.619 | 0.857 | 0.835 | 0.895 | 0.812 | 0.779 | 1.16 | 0.984 | 0.852 | 0.932 | 0.618 | 0.8 | 0.736 | 0.698 | 0.712 | 0.669 |
| NCI-H2085 | 0.453 | 0.475 | 0.474 | 0.456 | 0.355 | 0.924 | 0.802 | 0.887 | 0.881 | 0.603 | 1.04 | 0.977 | 0.802 | 0.96 | 0.535 | 0.543 | 0.506 | 0.487 | 0.576 | 0.508 |
| NCI-H1734 | 0.334 | 0.302 | 0.337 | 0.345 | 0.309 | 0.403 | 0.4 | 0.416 | 0.412 | 0.347 | 0.738 | 0.725 | 0.387 | 0.396 | 0.347 | 0.445 | 0.828 | 0.421 | 0.516 | 0.295 |
| NCI-H2126 | 0.369 | 0.4 | 0.38 | 0.33 | 0.357 | 0.694 | 0.726 | 0.649 | 0.744 | 0.552 | 0.783 | 0.694 | 0.764 | 0.687 | 0.437 | 0.582 | 0.629 | 0.585 | 0.608 | 0.396 |
| EMC-BAC-2 | 0.555 | 0.505 | 0.511 | 0.544 | 0.483 | 0.457 | 0.456 | 0.421 | 0.541 | 0.46 | 0.799 | 0.583 | 0.456 | 0.878 | 0.773 | 1.03 | 1 | 0.772 | 1.03 | 1.01 |
| NCI-H1993 | 0.642 | 0.583 | 0.717 | 0.691 | 0.573 | 0.646 | 0.605 | 0.582 | 0.594 | 0.475 | 0.666 | 0.76 |  | 0.68 | 0.699 | 0.639 | 0.602 | 0.506 | 0.601 | 0.703 |
| NCI-H520 | 0.253 | 0.218 | 0.217 | 0.224 | 0.13 | 0.757 | 0.673 | 0.636 | 0.416 | 0.267 | 1.1 | 0.835 | 0.429 | 0.375 | 0.275 | 0.552 | 0.49 | 0.399 | 0.299 | 0.233 |
| NCI-H647 | 0.488 | 0.342 | 0.463 | 0.371 | 0.215 | 0.155 | 0.162 | 0.192 | 0.218 | 0.127 | 1.05 | 0.932 | 0.422 | 0.246 | 0.167 | 0.391 | 0.369 | 0.187 | 0.144 | 0.14 |
| NCI-H1792 | 0.635 | 0.613 | 0.679 | 0.719 | 0.479 | 1.12 | 0.795 | 0.706 | 1.11 | 0.634 | 0.8 | 0.622 | 0.514 | 0.215 | 0.316 | 0.62 | 0.531 | 0.292 | 0.292 | 0.254 |
| SK-LU-1 | 0.384 | 0.361 | 0.329 | 0.404 | 0.318 | 1.1 | 0.918 | 1.01 | 0.868 | 0.366 | 1.2 | 0.875 | 0.66 | 0.745 | 0.468 | 0.583 | 0.652 | 0.478 | 0.675 | 0.495 |
| NCI-H2009 | 0.22 | 0.169 | 0.229 | 0.179 | 0.148 | 1.06 | 1.11 | 1.1 | 0.993 | 0.877 | 1.18 | 1.13 | 0.97 | 0.947 | 0.392 | 0.386 | 0.36 | 0.33 | 0.383 | 0.266 |
| LOU-NH91 | 0.497 | 0.57 | 0.499 | 0.529 | 0.509 | 0.355 | 0.372 | 0.329 | 0.386 | 0.344 | 0.703 | 0.719 | 0.686 | 0.693 | 0.56 | 0.842 | 0.802 | 0.744 | 0.849 | 0.593 |
| NCI-H2405 | 0.58 | 0.525 | 0.523 | 0.565 | 0.49 | 1.2 | 1.01 | 1 | 1.04 | 0.796 | 0.749 | 0.749 | 0.726 | 0.769 | 0.568 | 0.731 | 0.699 | 0.671 | 0.765 | 0.58 |
| LCLC-97TM1 | 0.262 | 0.217 | 0.171 | 0.217 | 0.17 | 0.173 | 0.188 | 0.16 | 0.221 | 0.175 | 0.23 | 0.224 | 0.193 | 0.12 | 0.112 | 0.211 | 0.202 | 0.183 | 0.176 | 0.117 |
| H3255 | 0.335 | 0.311 | 0.325 | 0.335 | 0.321 | 0.57 | 0.563 | 0.584 | 0.584 | 0.526 | 0.664 | 0.734 | 0.422 | 0.716 | 0.673 | 0.687 | 0.615 |  | 0.65 | 0.665 |
| SK-MES-1 | 0.342 | 0.318 | 0.314 | 0.285 | 0.266 | 0.992 | 0.874 | 0.895 | 0.716 | 0.622 | 0.902 | 1.01 | 0.596 | 0.575 | 0.345 | 0.442 | 0.397 | 0.321 | 0.286 | 0.261 |
| NCI-H1437 | 0.304 | 0.336 | 0.309 | 0.272 | 0.212 | 0.335 | 0.303 | 0.323 | 0.355 | 0.338 | 1.16 | 1.03 |  | 1.14 | 0.319 | 0.617 | 0.639 | 0.464 | 0.686 | 0.528 |
| LU99A | 0.431 | 0.363 | 0.387 | 0.37 | 0.331 | 0.178 | 0.2 | 0.171 | 0.183 | 0.135 | 0.58 | 0.506 | 0.451 | 0.292 | 0.152 | 0.906 | 0.813 | 0.61 | 0.392 | 0.215 |
| HCC-827 | 0.444 | 0.431 | 0.421 | 0.446 | 0.432 | 0.184 | 0.31 | 0.241 | 0.254 | 0.141 | 1.02 | 1.11 | 0.84 | 0.673 | 0.305 | 0.42 | 0.353 | 0.259 | 0.259 | 0.346 |
| LK-2 | 0.803 | 0.842 | 0.598 | 0.701 | 0.672 | 0.253 | 0.352 | 0.31 | 0.306 | 0.282 | 1.15 | 1.29 | 0.541 | 0.665 | 0.407 | 0.34 | 0.338 | 0.274 | 0.288 | 0.194 |
